In brackets after ≈: the same amount, converted by molar mass. Where two headings read alike, the source gives them in different places.
Assays:
MDA-MB-231 cells [1] = experiment: Cytotoxicity, neutral red (NR) assay; type: cell-based, human; conditions: for Cytotoxicity (mM) in Cell Line MDA-MB-231, IC50: 48 h treatment, neutral red assay
Protocol: (§1) Briefly, MCF-7 cells were cultured in EMEM (Biological Industries, Israel) medium supplemented with 10% fetal calf serum (Gibco). MDA-MB-231 cells were cultured in Leibovitz‘s L15 (Biological Industries, Beit HaEmek, Israel) medium supplemented with 10% fetal calf serum (Gibco). The MCF-7 cells were incubated in a 5% CO2 atmosphere at 37 °C, whereas the MDA-231 cells were incubated in a 100% air atmosphere at 37 °C.
(§2) Cytotoxicity evaluation was conducted to assess the impact of hydroxybenzoic acids on the proliferation of MCF-7 and MDA-MB-231 cells, which was measured via neutral red (NR) assay. In brief, cells were seeded in 96-well microplates (TPP, Switzerland) at a density of 2 × 10^4 cells/well in 100 μL of culture medium. At least three independent experiments in six replicate wells were conducted per concentration. Twenty-four hours after cell seeding, cells were treated with increasing concentrations of hydroxybenzoic acids (0.02–5 mM) for forty-eight hours. After treatment, cells were incubated for 3 h at 37 °C with 100 µL of neutral red solution (stock solution of NR) (Sigma-Aldrich), and then 5 mg/mL of PBS was diluted 1:100 in cell culture medium, incubated for 12 h at 37 °C, and centrifuged to remove any undissolved NR powder. […] After 15 min of gentle shaking, optical density was read at 540 nm with an Infinite M200 plate reader spectrophotometer (Tecan, Austria).

MCF-7 cells = experiment: Cytotoxicity, neutral red (NR) assay; type: cell-based, human; conditions: for Cytotoxicity (mM) in Cell Line MCF-7, IC50: 48 h treatment, neutral red assay
Protocol: as §1, §2

[2] = Lipophilicity via RP-HPLC; type: physicochemical
Protocol: The analyses were carried out on the following chromatographic columns: RP-18e Purospher STAR (C18), 150 mm × 4.0 mm, 5 µm, (Merck, Darmstadt, Germany); RP-8e Purospher STAR (C8), 150 mm × 4.6 mm, 5 µm, (Merck, Darmstadt, Germany); Zorbax Eclipse XDB-CN (CN), 150 mm × 4.6 mm, 5 µm, (Agilent Technologies, Santa Clara, CA, USA); Nucleosil Phenyl (PHE), 250 mm × 4.6 mm, 7 µm, (Supelco, Bellefonte, PA, USA); and Regis Rexchrom IAM.PC.DD.2 (IAM), 100 mm × 4.6 mm, 10 µm, (Regis Technologies Inc., Morton Grave, IL, USA). The experimental conditions and the calculations were as described in [46].

[3] = cited from earlier work
[4] = CABTS = 7 mM, cited from earlier work; for inhibition: C = 10 μM, t = 7 min, read-out: ABTS radical scavenging activity (%); for IC50: t = 6 min, read-out: ABTS, IC50
[5] = tested on: E. coli, P. aeruginosa, S. aureus, B. subtilis, S. enteritidis, and C. albicans; experiment: MIC, stated for all tested strains together; type: cell-based; conditions: all of the tested strains
Protocol: The following bacterial strains were used in this study: Escherichia coli (PCM 2857), Pseudomonas aeruginosa (PCM 2720), Bacillus subtilis (PCM 2850), Staphylococcus aureus (PCM 2267), Salmonella enteritidis (NCTC 4776), and Candida albicans (PCM 2566-FY). The microbial strains were bought from the Polish Collection of Microorganisms (Wroclaw, Poland) or the American Type Culture Collection. Bacteria (0.1 mL of the reconstituted suspension) were seeded onto sterile Mueller–Hinton agar plates (Biomaxima), to which previously suitable amounts of the tested compounds were added to give the desired concentration.
(§3) The MIC (minimal inhibitory concentration) was determined by serial dilution of the tested compound in an agar medium, to which the appropriate inoculum of microorganisms was then added and incubated. Escherichia coli, Pseudomonas aeruginosa, Staphylococcus aureus, Bacillus subtilis, Salmonella enteritidis, and Candida albicans were grown overnight and then resuspended in physiological saline to an optical density at 600 nm (OD = 600) of 0.60, corresponding to 5.0 × 10^8 CFU/mL. Bacteria (0.1 mL of the reconstituted suspension) were seeded onto sterile Mueller–Hinton agar plates, to which previously suitable amounts of the tested compounds were added to reach the desired concentration. Tested chemicals were dissolved in DMSO solution. Negative controls were agar plates, to which DMSO was added, while positive controls were plates with gentamycin (in the case of bacteria) or flucanozole (in the case of fungi). The plates were incubated at 37 °C for 24 h. The lowest concentration without visible bacterial growth was determined as the MIC.

[6] = cited from earlier work; remark: listed apart in the source
[7] = ref 102; cited from earlier work
[8] = tested on: Salmonella enteritidis (NCTC 4776); experiment: MIC by serial dilution in agar medium; type: cell-based; conditions: Salmonella enterica
Protocol: The following bacterial strains were used in this study: Escherichia coli (PCM 2857), Pseudomonas aeruginosa (PCM 2720), Bacillus subtilis (PCM 2850), Staphylococcus aureus (PCM 2267), Salmonella enteritidis (NCTC 4776), and Candida albicans (PCM 2566-FY). The microbial strains were bought from the Polish Collection of Microorganisms (Wroclaw, Poland) or the American Type Culture Collection.
as §3

[9] = cited from earlier work; for inhibition: read-out: DPPH radical scavenging activity (%)
A2780 cancer cells = conditions: incubation time: two days; cited from earlier work
MDA-MB-231 cells [10] = tested on: MDA-MB-231 cells; parameters: method as in PMID 31746356; conditions: incubated for 48 h; cited from earlier work
[11] = tested on: E. coli, B. aureus, and L. monocytogenes; parameters: method as in doi:10.17221/132/2010-CJFS; conditions: ref 90; cited from earlier work
[12] = tested on: monocytes treated with hydrogen peroxide; conditions: 200 μM; cited from earlier work
Chrysosporium species = conditions: concentration of 30 mg/mL; cited from earlier work
[13] = C = 0,001 mg/mL, λ = 593 nm, t = 30 min
[14] = C = 10 μM, CDPPH = 100 μM, t = 30 min
[15] = C = 15 μM, CDPPH = 60 μM, t = 30 min
[16] = CDPPH = 60 μM, t = 30 min, read-out: DPPH, IC50
[17] = CDPPH = 1 mM, t = 20 min, read-out: DPPH, IC50
[18] = Salmonella enteritidis, read-out: MIC
[19] = CDPPH = 90 μM, t = 30 min, read-out: DPPH, IC50

| Structure (SMILES) | Cytotoxicity (mM) in Cell Line MDA-MB-231, IC50 (MDA-MB-231 cells [1]) | Cytotoxicity (mM) in Cell Line MCF-7, IC50 (MCF-7 cells) | log kw ([2]; C8 column) | ϕ0 ([2]; C8 column) | log kw ([2]; C18 column) | ϕ0 ([2]; C18 column) | log kw ([2]; CN column) | ϕ0 ([2]; CN column) | log kw ([2]; IAM column) | ϕ0 ([2]; IAM column) | log kw ([2]; PHE column) | ϕ0 ([2]; PHE column) | FRAP [3, 13] | inhibition [4] [%] | IC50 ([4]; ref 73) [µM] | pKaexp. ([6]; ref 104) | pKaexp. ([6]; ref 105) | LogPexp. [7] | IC50 [9, 17] [µM] | MIC [8, 18] [µg/mL] | also measured |
| --- | --- | --- | --- | --- | --- | --- | --- | --- | --- | --- | --- | --- | --- | --- | --- | --- | --- | --- | --- | --- | --- |
| O=C(O)c1ccc(O)c(O)c1 [3,4-DHB, 3,4-dihydroxybenzoic acid] | nontoxic | nontoxic | 1.00 | 0.83 | 2.32 | 0.45 | 1.58 | 1.08 | 0.44 | 1.13 | 1.07 | 0.50 | ≈ 0.65 (C = 0,001 mg/mL), λ = 593 nm, t = 30 min) [73] μM Fe^2+ | ~38 | 20.7 | 4.48 | 4.16 | 0.86 [102] | 0.0574 |  | IC50 ([4]; ref 68): 10.1 µM; MIC [5]: 2000 µg/mL (≈ 13 mM); pKaexp. ([6]; at 25 °C): 4.26; MIC [8]: 2000 µg/mL (≈ 13 mM); inhibition [9, 14]: ~70%; inhibition [9, 15]: ~88.5%; IC50 ([9]; CDPPH = 50 μM, t = 30 min, read-out: DPPH, IC50): 3.83 µM; IC50 [9, 16]: 15.8 µM |
| O=C(O)c1cc(O)cc(O)c1 [3,5-DHB, 3,5-dihydroxybenzoic acid] | nontoxic | nontoxic | 0.90 | 0.83 | 2.56 | 0.45 | 1.78 | 1.07 | 0.51 | 1.16 | 1.03 | 0.55 | ≈ 0.03 (C = 0,001 mg/mL), λ = 593 nm, t = 30 min) [73] μM Fe^2+ |  | 41.9 | 4.04 | 3.61 | 0.86 [102] |  | 2000 (≈ 13 mM) | pKaexp. ([6]; ref 108): 4.04; IC50 [9, 19]: 385 µM |
| O=C(O)c1cc(O)c(O)c(O)c1 [3,4,5-THB, 3,4,5-trihydroxybenzoic acid] |  |  | 0.50 | 0.91 | 1.91 | 0.37 | 1.24 | 1.06 | 0.15 | 1.44 | 0.83 | 0.33 | ≈ 1.03 (C = 0,001 mg/mL), λ = 593 nm, t = 30 min) [73] μM Fe^2+ | ~80 | 4.33 | 4.41 | 3.94 | 0.70 [102] | 0.0237 |  | inhibition of growth of MDA-MB-231 cells (MDA-MB-231 cells [1]; concentration of 5 mM): almost completely; inhibition of growth of MCF-7 cells (MCF-7 cells; concentration of 5 mM): almost completely; IC50, A2780 cancer cells (A2780 cancer cells): 45.25 µg/mL (≈ 0.266 mM); pKaexp. ([6]; ref 110): 4.40; inhibition [9, 14]: ~70%; inhibition [9, 15]: 88.5%; inhibition ([9]; C ≈ 0.7 mM, CDPPH = 200 μM, t = 30 min): 40%; IC50 ([9]; after 30 min of incubation with a free radical, read-out: DPPH IC50): 4.2 µM |
| O=C(O)c1c(O)cccc1O [2,6-DHB, 2,6-dihydroxybenzoic acid] |  |  | 1.17 | 1.05 | 2.99 | 0.68 | 1.49 | 1.08 | 1.31 | 1.14 | 0.87 | 1.05 |  |  |  | 1.30 | 1.51 | 2.20 [102] |  | 3000 (≈ 19.5 mM) | IC50 ([9]; CDPPH = 500 μM, t = 30 min, read-out: DPPH, IC50): 232 µM |
| O=C(O)c1cc(O)ccc1O [2,5-DHB, 2,5-dihydroxybenzoic acid] |  |  |  |  |  |  |  |  |  |  |  |  | ≈ 0.98 (C = 0,001 mg/mL), λ = 593 nm, t = 30 min) [73] μM Fe^2+ |  | 15.6 |  |  |  | 0.0292 | 3000 (≈ 19.5 mM) | FRAP ([3]; C = 5 μM, λ = 594 nm, t = n.d.): 75.39 (C = 5 μM, λ = 594 nm, t = n.d.) [62] μM Fe^2+; FRAP ([3]; C = 50 μM, λ = 594 nm, t = n.d.): 236.86 (C = 50 μM, λ = 594 nm, t = n.d.) [62] μM Fe^2+; IC50 ([4]; ref 68): ~6.5 µM; concentration that inhibited colony formation (MDA-MB-231 cells [10]): 100 µM; IC50 [9, 16]: 6.3 µM; IC50 ([9]; CDPPH = 60 μM, t = 60 min, read-out: DPPH, IC50): 4.95 µM; IC50 [9, 19]: 37 µM; MIC [11]: 2500 µM (≈ 385 µg/mL) |
| O=C(O)c1cccc(O)c1O [2,3-DHB, 2,3-Dihydroxybenzoic acid] |  |  | 1.70 | 0.87 | 2.47 | 0.60 | 1.59 | 1.16 | 2.17 | 1.08 | 1.25 | 0.93 |  |  | 10.7 | 2.98 | 2.56 | 1.20 [102] |  | 5000 (≈ 32.4 mM) | cell survival [12]: 50%; zone of inhibition (Chrysosporium species): 25 mm; MIC [5]: 5000 µg/mL (≈ 32.4 mM); concentration that inhibited colony formation (MDA-MB-231 cells [10]): ~ 500 µM; pKaexp. ([6]; at 25 °C): 2.91 |

— publication PMC8466373, “Plant-Derived and Dietary Hydroxybenzoic Acids—A Comprehensive Study of Structural, Anti-/Pro-Oxidant, Lipophilic, Antimicrobial, and Cytotoxic Activity in MDA-MB-231 and MCF-7 Cell Lines” (Nutrients, 2021)
